Among the data in patent US12492186B2, “Bicyclic heterocyclic compounds useful as IRAK4 inhibitors” (BRISTOL-MYERS SQUIBB COMPANY, priority 2019, dated 2025) are IC50 values, retold here.

The term IC50 denotes the concentration needed to halve the response being measured.

Sequence of IRAK4 (Q9NWZ3 whole entry, species assumed): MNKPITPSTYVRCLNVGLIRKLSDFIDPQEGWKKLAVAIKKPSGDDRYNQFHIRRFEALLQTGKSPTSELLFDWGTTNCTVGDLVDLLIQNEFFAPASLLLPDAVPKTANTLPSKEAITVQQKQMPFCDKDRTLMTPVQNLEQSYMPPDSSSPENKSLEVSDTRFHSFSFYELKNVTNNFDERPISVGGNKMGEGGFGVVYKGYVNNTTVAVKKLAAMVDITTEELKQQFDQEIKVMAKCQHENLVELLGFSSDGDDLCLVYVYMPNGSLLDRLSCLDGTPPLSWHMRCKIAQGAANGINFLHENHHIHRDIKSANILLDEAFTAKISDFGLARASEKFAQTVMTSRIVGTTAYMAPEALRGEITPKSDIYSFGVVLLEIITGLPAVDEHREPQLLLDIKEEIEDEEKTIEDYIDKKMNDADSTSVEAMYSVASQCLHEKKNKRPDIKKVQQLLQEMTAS

The assay deals with IRAK4 (Homo sapiens (Human), UniProt Q9NWZ3). Briefly: IRAK4 Inhibition Assay. As to conditions: ATP 500 μM; IRAK4 0.6 nM; 60 min room temperature; Caliper LABCHIP 3000. Format: biochemical. The procedure:
The assays were performed in U-bottom 384-well plates. The final assay volume was 30 μL prepared from 15 μL additions of enzyme and substrates (fluoresceinated peptide and ATP) and test compounds in assay buffer (20 mM HEPES pH 7.2, 10 mM MgCl2, 0.015% Brij 35 and 4 mM DTT). The reaction was initiated by the combination of IRAK4 with substrates and test compounds. The reaction mixture was incubated at room temperature for 60 min. and terminated by adding 45 μL of 35 mM EDTA to each sample. The reaction mixture was analyzed on the Caliper LABCHIP® 3000 (Caliper, Hopkinton, MA) by electrophoretic separation of the fluorescent substrate and phosphorylated product. Inhibition data were calculated by comparison to no enzyme control reactions for 100% inhibition and vehicle-only reactions for 0% inhibition. The final concentrations of reagents in the assays are ATP, 500 μM; FL-IPTSPITTTYFFFKKK peptide 1.5 μM; IRAK4, 0.6 nM; and DMSO, 1.6%.
Regarding `CCCc1nc(-c2cnc3ccc(-c4cn[nH]c4)cc3c2NC(C)C)n[nH]1` [Example 125, N-isopropyl-3-(5-propyl-1H-1,2,4-triazol-3-yl)-6-(1H-pyrazol-4-yl)quinolin-4-amine], the IC50 worked out at 83.6 nM.
Consider `CC(O)CCNC(=O)c1cnc2ccc(-c3cn[nH]c3)cc2c1NCC(F)F` (stereo not drawn) [Example 64, 4-((2,2-difluoroethyl)amino)-N-(3-hydroxybutyl)-6-(1H-pyrazol-4-yl)quinoline-3-carboxamide], for which the IC50 came to 28 nM.
For the molecule `CC(O)CCNC(=O)c1cnc2ccc(-c3cn[nH]c3)cc2c1NC1CC(F)(F)C1` (stereo not drawn) [Example 53, 4-((3,3-difluorocyclobutyl)amino)-N-(3-hydroxybutyl)-6-(1H-pyrazol-4-yl)quinoline-3-carboxamide], the concentration for half-maximal inhibition (IC50) stood at 32.6 nM.
With `CNC(=O)CCNC(=O)c1cnc2ccc(-c3cn[nH]c3)cc2c1NC(C)C` [Example 48, 4-(isopropylamino)-N-(3-(methylamino)-3-oxopropyl)-6-(1H-pyrazol-4-yl)quinoline-3-carboxamide], the IC50 came out at 30.7 nM.
`CC(C)(O)CCNC(=O)c1cnc2ccc(-c3cn[nH]c3)cc2c1NC1COC1` [Example 40, N-(3-hydroxy-3-methylbutyl)-4-(oxetan-3-ylamino)-6-(1H-pyrazol-4-yl)quinoline-3-carboxamide]: the half-inhibitory concentration (IC50) came out at 33.5 nM.
As for `CC(C)Nc1c(C(=O)NC[C@@H](F)C(C)(C)O)cnc2ccc(-c3ccncc3)cc12` [Example 2, (R)—N-(2-fluoro-3-hydroxy-3-methylbutyl)-4-(isopropylamino)-6-(pyridin-4-yl)quinoline-3-carboxamide], the IC50 came to 25.9 nM.
The value for `CC(C)Nc1c(C(=O)NCCC2CCCN2C(=O)C2CC2)cnc2ccc(-c3cn[nH]c3)cc12` (stereo not drawn) [Example 93, N-(2-(1-(cyclopropanecarbonyl)pyrrolidin-2-yl)ethyl)-4-(isopropylamino)-6-(1H-pyrazol-4-yl)quinoline-3-carboxamide] was 29.3 nM; that for `CC(=O)NC1CC(NC(=O)c2cnc3ccc(-c4cn[nH]c4)cc3c2NC2CC(F)(F)C2)C1` (stereo not drawn) [Example 57, N-((1r,3r)-3-acetamidocyclobutyl)-4-((3,3-difluorocyclobutyl)amino)-6-(1H-pyrazol-4-yl)quinoline-3-carboxamide] was 22.6 nM.
On to `CCNc1c(C(=O)NCCC(C)(C)O)cnc2ccc(-c3cn[nH]c3)cc12` [Example 38, 4-(ethylamino)-N-(3-hydroxy-3-methylbutyl)-6-(1H-pyrazol-4-yl)quinoline-3-carboxamide], for which the IC50 was determined as 49.2 nM.
Regarding `CC(C)Nc1c(C(=O)NC2CCN(C(=O)CC(F)(F)F)CC2)cnc2ccc(-c3cn[nH]c3)cc12` [Example 83, 4-(isopropylamino)-6-(1H-pyrazol-4-yl)-N-(1-(3,3,3-trifluoropropanoyl)piperidin-4-yl)quinoline-3-carboxamide], the IC50 was determined as 24.5 nM.
With `CC(C)Nc1c(C(=O)NC[C@@H](F)C(C)(C)O)cnc2ccc(-c3cncnc3)cc12` [Example 5, (R)—N-(2-fluoro-3-hydroxy-3-methylbutyl)-4-(isopropylamino)-6-(pyrimidin-5-yl)quinoline-3-carboxamide], the IC50 stood at 31.7 nM.
For the molecule `CC(C)Nc1c(C(=O)NC[C@@H](F)C(C)(C)O)cnc2ccc(-c3cccnc3)cc12` [Example 3, (R)—N-(2-fluoro-3-hydroxy-3-methylbutyl)-4-(isopropylamino)-6-(pyridin-3-yl) quinoline-3-carboxamide], the IC50 is 46.2 nM.
For the molecule `CC(C)Nc1c(C(=O)NCC(C)(C)CO)cnc2ccc(-c3cn[nH]c3)cc12` [Example 19, N-(3-hydroxy-2,2-dimethylpropyl)-4-(isopropylamino)-6-(1H-pyrazol-4-yl)quinoline-3-carboxamide], the IC50 is 94.8 nM.
As for `CC(C)(O)CCNC(=O)c1cnc2ccc(-c3cncs3)cc2c1NC1COC1` [Example 41, N-(3-hydroxy-3-methylbutyl)-4-(oxetan-3-ylamino)-6-(thiazol-5-yl)quinoline-3-carboxamide], the IC50 was 210 nM.
The value for `CCNc1c(C(=O)NC[C@@H](F)C(C)(C)O)cnc2ccc(-c3cncs3)cc12` [Example 28, (R)-4-(ethylamino)-N-(2-fluoro-3-hydroxy-3-methylbutyl)-6-(thiazol-5-yl)quinoline-3-carboxamide] was 81.2 nM; that for `CC(C)Nc1c(C(=O)NCCc2c[nH]cn2)cnc2ccc(-c3cn[nH]c3)cc12` [Example 102, N-(2-(1H-imidazol-4-yl)ethyl)-4-(isopropylamino)-6-(1H-pyrazol-4-yl)quinoline-3-carboxamide] was 23 nM; that for `CC(C)Nc1c(-c2cn(CCS(C)(=O)=O)nn2)cnc2ccc(-c3cn[nH]c3)cc12` [Example 137, N-isopropyl-3-(1-(2-(methylsulfonyl)ethyl)-1H-1,2,3-triazol-4-yl)-6-(1H-pyrazol-4-yl)quinolin-4-amine] was 38.8 nM.
On to `O=C(NCC1CCS(=O)(=O)CC1)c1cnc2ccc(-c3cn[nH]c3)cc2c1NC1CC1` [Example 116, 4-(cyclopropylamino)-N-((1,1-dioxidotetrahydro-2H-thiopyran-4-yl)methyl)-6-(1H-pyrazol-4-yl)quinoline-3-carboxamide], for which the IC50 stood at 43.7 nM.
Then `CC(O)CNc1c(C(=O)NC[C@@H](F)C(C)(C)O)cnc2ccc(-c3cn[nH]c3)cc12` (stereo partly drawn) [Example 30, N—((R)-2-fluoro-3-hydroxy-3-methylbutyl)-4-((2-hydroxypropyl)amino)-6-(1H-pyrazol-4-yl)quinoline-3-carboxamide], with 24.2 nM; and `CC(C)Nc1c(C(=O)NC2CCOCC2)cnc2ccc(-c3cn[nH]c3)cc12` [Example 9, 4-(isopropylamino)-6-(1H-pyrazol-4-yl)-N-(tetrahydro-2H-pyran-4-yl)quinoline-3-carboxamide], with 23.3 nM.
The value for `CC(C)Nc1c(C(=O)NCCc2nnn[nH]2)cnc2ccc(-c3cn[nH]c3)cc12` [Example 110, N-(2-(1H-tetrazol-5-yl)ethyl)-4-(isopropylamino)-6-(1H-pyrazol-4-yl)quinoline-3-carboxamide] was 212 nM.
For the molecule `CC(C)Nc1c(C(=O)Nc2ccc(N3CCOCC3)nc2)cnc2ccc(-c3cn[nH]c3)cc12` [Example 100, 4-(isopropylamino)-N-(6-morpholinopyridin-3-yl)-6-(1H-pyrazol-4-yl)quinoline-3-carboxamide], the IC50 amounted to 4.5 nM.
The value for `CC(C)Nc1c(C(=O)NCCC2CC2)cnc2ccc(-c3ccnc(C#N)c3)nc12` [Example 157, 6-(2-cyanopyridin-4-yl)-N-(2-cyclopropylethyl)-4-(isopropylamino)-1,5-naphthyridine-3-carboxamide] was 280 nM.
As for `O=C(NCCC(F)F)c1cnc2ccc(-c3cn[nH]c3)cc2c1NCC(F)F` [Example 67, 4-((2,2-difluoroethyl)amino)-N-(3,3-difluoropropyl)-6-(1H-pyrazol-4-yl)quinoline-3-carboxamide], the IC50 is 22.9 nM.
`CC(C)Nc1c(C(=O)NCCc2ncno2)cnc2ccc(-c3cn[nH]c3)cc12` [Example 106, N-(2-(1,2,4-oxadiazol-5-yl)ethyl)-4-(isopropylamino)-6-(1H-pyrazol-4-yl)quinoline-3-carboxamide]: the IC50 was determined as 118 nM.
As for `CC(=O)N[C@H]1CC[C@H](NC(=O)c2cnc3ccc(-c4cccnc4)nc3c2NC(C)C)CC1` [Example 153, N-((1r,4r)-4-acetamidocyclohexyl)-4-(isopropylamino)-6-(pyridin-3-yl)-1,5-naphthyridine-3-carboxamide], the IC50 came to 31.6 nM.
The value for `CC(C)Nc1c(C(=O)NCCC(C)(C)O)cnc2ccc(-c3ccc(=O)[nH]c3)cc12` [Example 74, N-(3-hydroxy-3-methylbutyl)-4-(isopropylamino)-6-(6-oxo-1,6-dihydropyridin-3-yl)quinoline-3-carboxamide] was 124 nM.
Turning to `CC(C)Nc1c(C(N)=O)cnc2ccc(-c3cn[nH]c3)cc12` [Example 29, 4-(isopropylamino)-6-(1H-pyrazol-4-yl)quinoline-3-carboxamide], the IC50 stood at 21.7 nM.
`O=C(NCCC1CC1)c1cnc2ccc(-c3cn[nH]c3)cc2c1NCC(F)F` [Example 75, N-(2-cyclopropylethyl)-4-((2,2-difluoroethyl)amino)-6-(1H-pyrazol-4-yl)quinoline-3-carboxamide]: the IC50 stood at 20.1 nM.
`CC(C)Nc1c(C(=O)NCCC(=O)N(C)C)cnc2ccc(-c3cn[nH]c3)cc12` [Example 49, N-(3-(dimethylamino)-3-oxopropyl)-4-(isopropylamino)-6-(1H-pyrazol-4-yl)quinoline-3-carboxamide]: the IC50 was 29.8 nM.
With `CC(C)Nc1c(C(=O)NCC(=O)N2CCOCC2)cnc2ccc(-c3cn[nH]c3)cc12` [Example 90, 4-(isopropylamino)-N-(2-morpholino-2-oxoethyl)-6-(1H-pyrazol-4-yl)quinoline-3-carboxamide], the IC50 came to 34.4 nM.
Consider `CC(C)Nc1c(C(=O)NCCC(C)(C)O)cnc2ccc(-c3cccnc3)nc12` [Example 146, N-(3-hydroxy-3-methylbutyl)-4-(isopropylamino)-6-(pyridin-3-yl)-1,5-naphthyridine-3-carboxamide], for which the 50% inhibitory concentration (IC50) turned out to be 89.8 nM.
Regarding `CC(C)Nc1c(C(=O)NC[C@@H](F)C(C)(C)O)cnc2ccc(-c3cncc(C#N)c3)cc12` [Example 4, (R)-6-(5-cyanopyridin-3-yl)-N-(2-fluoro-3-hydroxy-3-methylbutyl)-4-(isopropylamino)quinoline-3-carboxamide], the IC50 was 296 nM.
